# Square brackets hold non-standard residues; d marks the D form. Peptide text beside a SMILES is read from it. * marks the point of attachment. Dolaproine = CO[C@@H]([C@@H]1CCCN1)[C@@H](C)C(=O)O; Dil = CC[C@H](C)[C@H](NC)[C@@H](CC(=O)O)OC; X1 = C[C@@H](N*)[C@@H](O)c1ccccc1; NMeV = CN[C@H](C(=O)O)C(C)C
# Key:
# [1] = tested on: NCI-N87, SW1990, HAY, YOU, OVCAR3 and A549 cells; assay: Free cytotoxin cytotoxicity, crystal violet viability; format: cell-based, human; conditions: 72 hours, average over cell lines
# Text: FIGS. 2A-C. Cytotoxic payloads and linkers examined for developing reformatted MES-1 antibody for optimal killing of immunoproficient and immunosuppressed mesothelin expressing cancer cells. FIG. 2A provides chemical structures of various types of cytotoxic payloads (i.e., microtubule inhibitors, DNA alkylating agents, topoisomerase inhibitors, and protein kinase inhibitors, see, e.g., Yaghoubi S, et al. J Cell Physiol 235:31-64, 2019; Wang R E, et al. J Am Chem Soc 137:3229-3232, 2015) tested against immunosuppressive and immunoproficient mesothelin expressing target cells. FIG. 2B provides chemical structures of various enzymatic and non-enzymatic cleavable and non-cleavable linkers tested to generate MES-ADCs against immunosuppressive and immune-proficient mesothelin expressing target cells. FIG. 2C provides an overview of the cytotoxicity of potential ADC payloads against mesothelin expressing cancer cells or control cell lines (Table 1). Briefly, 96-well tissue culture plates were seeded with 5,000 cells/well of mesothelin-positive NCI-N87 (CA125^+ gastric cancer), SW1990 (CA125^+ pancreatic cancer), HAY (CA125^+ mesothelioma), YOU (CA125^− mesothelioma), OVCAR3 (CA125^+ ovarian cancer) and A549 (mesothelin negative lung cancer) cells in 100 μLs of RPMI plus 7.5% heat inactivated fetal bovine serum (FBS), and 0.0001 to 500 ng/mL of cytotoxin or negative control. Cultures were incubated for 72 hours at 37° C. in 5% CO2 then quantified for viability using crystal violet staining. Dried stained wells were solubilized using 1% SDS in phosphate buffer saline (PBS) and quantified by colorimetric densitometry on a Varioskan™ multi-well plate reader at 570 nm. […] Experiments represent a minimum of triplicate wells. Statistical analysis was done using a two-sided Student' T-test.
# To identify best candidates to meet this criteria, we first tested different classes of cytotoxins including DNA alkylating agents, microtubule inhibitors, and topoisomerase inhibitors (FIG. 2A). […]
# [2] = tested on: mesothelioma; conditions: patients with elevated CA125 vs low CA125; cited from earlier work
# [3] = tested on: follicular lymphoma; conditions: CA125 in normal range vs above normal range; cited from earlier work
Molecule,average EC50 [1] [ng/mL],also measured
"CC[C@H](C)[C@@H]([C@@H](CC(=O)N1CCC[C@H]1[C@H](OC)[C@@H](C)C(=O)N[C@H](C)[C@@H](O)c1ccccc1)OC)N(C)C(=O)[C@@H](NC(=O)[C@@H](NC)C(C)C)C(C)C [MMAE, Monomethyl Auristatin E] (H-[NMeV]V[Dil][Dolaproine]-X1)",1.39,
"COc1cccc2c1C(=O)c1c(O)c3c(c(O)c1C2=O)C[C@@](O)(C(=O)CO)C[C@@H]3O[C@H]1C[C@H]2[C@H](O[C@@H]3[C@@H](OC)OCCN32)[C@H](C)O1 [PNU159682, reference compound]",0.014,
CCc1c2c(nc3ccc(O)cc13)-c1cc3c(c(=O)n1C2)COC(=O)[C@]3(O)CC [SN38],2.44,
amatuximab: anti-mesothelin antibody,,PFS and OS outcomes [2]: worse progression-free survival (PFS) and overall survival (OS) outcomes
rituximab: clinically used rituximab antibody,,improvement in 5-year progression-free survival [3]: 31.4%
